Laboratory results: patent publication US9603835B2, “Use of 3-(R)-[3-(2-methoxyphenylthio)-2-(S)-methylpropyl]amino-3,4-dihydro-2H-1,5-benzoxathiepine for treating cancer and in particular for preventing and/or treating cancer metastases” (PIERRE FABRE MEDICAMENT, priority 2011, dated 2017)

Legend:
[1] = biological target: T1, Nav1.5 voltage-gated sodium channels (Homo sapiens, UniProt Q14524); assay: Whole-cell patch-clamp, repeated depolarisation protocol, MDA-MB-231 cells; assay type: cell-based
T1 construct: said cells express, inter alia, functional Nav1.5 voltage-gated sodium channels; endogenous in cells; host or cells: MDA-MB-231
Text: Merely as an illustration, the inventors chose to use the MDA-MB-231 line, which is a highly metastatic human mammary adenocarcinoma line, in the experiment. […] However, the pharmacological tools in question are not suitable for precise characterisation of the nature of the Nav1.5 sodium current involved in the metastatic process. […] For this reason, the inventors consider that 3-(R)-[3-(2-methoxyphenylthio)-2-(S)-methyl-propyl]amino-3,4-dihydro-2H-1,5-benzoxathiepine has anti-metastatic properties in relation to cancer cells expressing the Nav1.5 channel. As such, it is important to note that numerous types of metastatic cancer have been reported as expressing the Nav1.5 channel.
Cell culture: the MDA-MB-231 cells are cultured in a Dulbecco's modified Eagle's medium, (Life Technologies LTD, Paisley, UK) supplemented with 4 mM L-glutamine and 10% foetal calf serum. The cells are inoculated in 100 mm culture dishes and placed in an incubator at 37° C., 100% moisture and 5% CO2.
Electrophysiological measurements in “whole cell” configuration: the patch pipette (resistance 5-15 MΩ) contains a solution of: 5 mM NaCl, 145 mM CsCl, 2 mM MgCl2, 1 mM CaCl2, 10 mM HEPES and 11 mM EGTA, the pH is adjusted to 7.4 with CsOH. The reference electrode is immersed in the extracellular medium consisting of a solution of: 140 mM NaCl, 4 mM KCl, 2 mM MgCl2, 11 mM glucose, 10 mM HEPES, the pH is adjusted to 7.4 with NaOH. These two electrodes are connected to an Axopatch 200B amplifier (Axon Instrument). The currents are filtered using a Bessel filter at a frequency of 5 kHz and are sampled at a frequency of 5 kHz using the Digidata interface (1200). The data acquisition and analysis are performed using pClamp software (Axon Instrument). The holding potential is set to −110 mV to record the maximum Nav channel activity.
Two protocols were used: • 1/ “Voltage-dependent current INa” protocol for observing the maximum amplitude of INa according to the voltage applied. Depolarisations in 5 mV stages are performed at a frequency of 0.2 Hz, from −110 to +60 mV. […]

Cytotoxicity = assay type: cell-based
[2] = In vivo effect on normal cardiac function; details: even at high doses

T1 sequence (Q14524 1-2016 isoform Q14524-4): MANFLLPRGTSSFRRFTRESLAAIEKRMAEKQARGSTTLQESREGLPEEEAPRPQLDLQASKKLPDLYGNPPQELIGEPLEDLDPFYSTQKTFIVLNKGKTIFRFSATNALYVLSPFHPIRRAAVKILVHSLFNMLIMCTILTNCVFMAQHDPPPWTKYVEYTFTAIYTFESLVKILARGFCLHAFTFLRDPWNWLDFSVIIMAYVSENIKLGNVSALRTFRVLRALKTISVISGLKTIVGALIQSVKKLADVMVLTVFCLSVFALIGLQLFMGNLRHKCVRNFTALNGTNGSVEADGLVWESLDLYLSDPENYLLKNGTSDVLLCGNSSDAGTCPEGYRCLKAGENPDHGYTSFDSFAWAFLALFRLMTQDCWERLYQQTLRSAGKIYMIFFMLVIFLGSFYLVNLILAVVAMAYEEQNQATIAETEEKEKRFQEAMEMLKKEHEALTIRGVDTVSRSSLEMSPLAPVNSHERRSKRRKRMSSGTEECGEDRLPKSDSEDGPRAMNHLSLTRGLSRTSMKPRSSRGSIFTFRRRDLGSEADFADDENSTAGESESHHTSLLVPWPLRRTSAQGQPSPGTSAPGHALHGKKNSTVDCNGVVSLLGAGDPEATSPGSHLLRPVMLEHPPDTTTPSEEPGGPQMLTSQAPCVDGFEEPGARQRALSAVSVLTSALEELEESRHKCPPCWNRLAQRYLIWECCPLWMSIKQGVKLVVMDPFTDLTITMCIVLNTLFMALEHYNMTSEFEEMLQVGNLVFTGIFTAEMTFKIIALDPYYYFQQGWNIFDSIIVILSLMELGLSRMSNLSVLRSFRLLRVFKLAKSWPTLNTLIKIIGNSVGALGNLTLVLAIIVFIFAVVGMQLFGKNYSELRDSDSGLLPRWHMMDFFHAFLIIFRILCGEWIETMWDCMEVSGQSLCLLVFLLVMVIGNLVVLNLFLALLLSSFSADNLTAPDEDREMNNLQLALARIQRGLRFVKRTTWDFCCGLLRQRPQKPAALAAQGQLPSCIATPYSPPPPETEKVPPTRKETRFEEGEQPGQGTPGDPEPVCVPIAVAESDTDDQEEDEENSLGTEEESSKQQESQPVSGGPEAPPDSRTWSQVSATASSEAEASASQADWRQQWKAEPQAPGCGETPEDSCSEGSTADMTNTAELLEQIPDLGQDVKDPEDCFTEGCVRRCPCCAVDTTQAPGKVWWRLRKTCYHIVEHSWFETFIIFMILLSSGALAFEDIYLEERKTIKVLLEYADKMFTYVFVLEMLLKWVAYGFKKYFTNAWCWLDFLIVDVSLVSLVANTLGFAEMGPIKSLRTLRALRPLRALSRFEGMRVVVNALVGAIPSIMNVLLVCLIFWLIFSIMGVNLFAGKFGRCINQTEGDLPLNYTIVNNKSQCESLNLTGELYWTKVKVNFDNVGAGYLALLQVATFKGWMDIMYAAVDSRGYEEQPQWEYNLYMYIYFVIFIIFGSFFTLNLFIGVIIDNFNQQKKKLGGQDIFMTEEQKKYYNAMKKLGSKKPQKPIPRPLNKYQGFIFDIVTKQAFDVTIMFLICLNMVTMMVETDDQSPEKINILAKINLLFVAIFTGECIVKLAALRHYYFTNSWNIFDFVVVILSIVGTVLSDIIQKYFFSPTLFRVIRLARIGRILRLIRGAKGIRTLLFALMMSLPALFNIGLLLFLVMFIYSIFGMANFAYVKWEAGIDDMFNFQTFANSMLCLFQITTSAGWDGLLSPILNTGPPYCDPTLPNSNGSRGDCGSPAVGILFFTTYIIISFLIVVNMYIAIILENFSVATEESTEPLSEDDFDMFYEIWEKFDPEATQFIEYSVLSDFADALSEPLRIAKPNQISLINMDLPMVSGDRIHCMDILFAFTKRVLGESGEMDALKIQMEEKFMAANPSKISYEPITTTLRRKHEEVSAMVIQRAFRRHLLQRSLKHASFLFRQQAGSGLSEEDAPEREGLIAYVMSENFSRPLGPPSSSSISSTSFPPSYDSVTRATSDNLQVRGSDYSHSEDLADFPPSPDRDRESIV

Row | SMILES | IC50 ([1]; MDA-MB-231 cells, whole cell patch-clamp, concentration-dependent, read-out: reduction of the metastatic Nav1.5 current (IC50)) [nM] | cytotoxicity (Cytotoxicity) | interference with normal cardiac function [2] | peak current inhibition ([1]; 1 µM) [%] | peak current inhibition ([1]; 5 µM) [%]
1 | COc1ccccc1SC[C@@H](C)CN[C@@H]1COc2ccccc2SC1 [3-(R)-[3-(2-methoxyphenylthio)-2-(S)-methyl-propyl]amino-3,4-dihydro-2H-1,5-benzoxathiepine] | 1500 | not cytotoxic | does not interfere with normal cardiac function | – | –
2 | NC1=N[C@H](O)[C@H]2[C@H]3O[C@]4(O)O[C@@H]([C@@H](O)[C@@]2(N1)[C@@H]4O)[C@]3(O)CO [tetrodotoxin] | – | – | – | 30±7 | 54±8
